Assay results as given in publication PMC10349806 (Nature Communications, 2023).
“And” between values parts separate entries of the source, which are not always exact repeats. Identical values can stand only once.

Target: T1, PfCRT variant Y276A (Plasmodium falciparum, UniProt Q9N623, A220S/I356T/K76T/M74I/N326S/N75E/Q271E/R371I/Y276A)
T1 sequence (Q9N623 1-424 M74I/N75E/K76T/A220S/Q271E/Y276A/N326S/I356T/R371I): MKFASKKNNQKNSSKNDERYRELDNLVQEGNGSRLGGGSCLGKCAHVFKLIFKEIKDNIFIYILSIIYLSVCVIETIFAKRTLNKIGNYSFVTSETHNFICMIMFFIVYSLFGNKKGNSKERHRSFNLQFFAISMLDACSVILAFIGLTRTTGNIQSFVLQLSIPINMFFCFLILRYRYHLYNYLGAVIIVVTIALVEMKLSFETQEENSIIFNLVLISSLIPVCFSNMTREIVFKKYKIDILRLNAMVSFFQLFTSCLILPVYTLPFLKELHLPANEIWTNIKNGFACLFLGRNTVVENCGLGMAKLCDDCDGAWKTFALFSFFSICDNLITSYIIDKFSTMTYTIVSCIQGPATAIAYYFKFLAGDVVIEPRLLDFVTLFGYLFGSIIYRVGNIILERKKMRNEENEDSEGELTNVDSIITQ
Assay: CQ uptake assay, oocytes expressing Y276A
Format: cell-based
Experimental: Site-directed mutagenesis of PfCRT^Dd2 was performed as described using the megaprimer method with overlap extension[21],[54]. The primer pairs used are listed in Supplementary Table 6. Please note that a codon-optimized and oocyte-adapted version of PfCRT^Dd2 was used[22] (Supplementary Fig. 16). The resulting DNA fragment was cloned into the SP64T expression vector and verified by sequencing.
Oocytes were obtained as described previously. Briefly, adult (>2 years old) female X. laevis frogs (NASCO) were anesthetized in a cooled solution of ethyl 3-amino benzoate methanesulfonate (0.1%, w/v), followed by a surgical removal of parts of the ovary. The ovary lobes were carefully dissected and small pieces of oocytes were incubated in Ca^2+-free ND96 buffer (96 mM NaCl, 2 mM KCl, 1 mM MgCl2 buffered with 5 mM HEPES/NaOH, pH 7.5) supplemented with collagenase D (0.1%, w/v; Roche), BSA (0.5%, w/v), and 9 mm Na2HPO4 at 18 °C for 14-16 h while gentle shaking. After incubation, the oocytes were carefully washed several times with ND96 buffer (96 mM NaCl, 2 mM KCl, 1.8 mM CaCl2, 1 mM MgCl2 buffered with 5 mM HEPES/NaOH, pH 7.5) supplemented with 100 mg l^−1 gentamycin). Defolliculated and healthy-looking stage V-VI oocytes were manually selected for RNA microinjection. The RNA was generated as following: The codon-optimized sequences of PfCRT variants were cloned into the pSP64T expression vector. After vector linearization using the restriction endonucleases BamHI or SalI (New England Biolabs), transcription was performed using the in vitro SP6 mMessage mMachine Kit (Ambion)[34]. The obtained RNA was kept at −80 °C and diluted with nuclease-free water to a concentration of 0.6 μg μl^−1. Precision-bore glass capillary tubes (3.5-inch glass capillaries; Drummond Scientific Co.) were pulled on a vertical puller (P-87 Flaming/Brown micropipette puller, Sutter Instrument Co.), graduated, and placed on a microinjector (Nanoject II Auto-Nanoliter Injector, Drummond Scientific Co.). 50 nl of nuclease-free water alone (control oocytes) or 50 nl of 0.6 μg μl^−1 RNA were injected under stereomicroscopic control. Injected oocytes were incubated for 46–72 h at 18 °C with twice-daily buffer changes before usage in experiments.
Drug uptake assays were performed as described previously[21],[22],[24],[34]. […] The direction of radio-labeled drug transport is here from the mostly acidic extracellular solution (pH 4.5 or 6.0, as indicated) into the oocyte cytosol (pH ∼ 7.2), which corresponds to the efflux of drug from the acidic digestive vacuole (pH 5.2) into the parasite cytoplasm (pH 7.2). The topology of PfCRT in the oolemma is such that both the N- and C-terminus face the extracellular milieu[3],[22]. In the parasite, the N- and C-terminus face the lumen of the digestive vacuole. […] For determination of the amount of drug uptake for each oocyte, the reaction medium was removed and the oocytes were washed three times with 2 ml of ice-cold ND96 buffer. Each oocyte was individually transferred to a scintillation vial containing 5% sodium dodecyl sulfate (200 μl) for lysis. […] Oocytes that were injected with water instead of RNA were analyzed in parallel, representing the uptake of a drug by diffusion and/or endogenous permeation pathways. The resulting value represents the “background“ level of drug accumulation in oocytes (in-depth discussion in[22]). The specific PfCRT-mediated uptake was determined by subtracting the corresponding background value measured in water-injected oocytes from that of PfCRT-expressing oocytes. In all cases, at least three separate experiments were performed on oocytes from different frogs (biological replicate), and for each condition in an experiment, measurements were made from 10 oocytes per treatment. For pH 5.5, 6.0, and 6.5, ND96 was buffered with 5 mM MES/Tris base.

[1] = Y276A, 50 µM CQ, 1 h, mean ± SEM

## CCN(CC)CCCC(C)Nc1ccnc2cc(Cl)ccc12 (stereo not drawn) [CQ, chloroquine]
[1]
  Activity at pH 4.5: 1.50 ± 0.12 pmol h-1 oocyte-1
  Activity at pH 6.0: 3.51 ± 0.35 pmol h-1 oocyte-1
Y276A, CQ transport at pH 4.5 / pH 6.0
  R-value: 0.45 ± 0.09
pH 4.5, single replicates, Fig 1d left
  Y276A transport activity pH 4.5: 1.28 pmol oocyte-1 h-1 and 1.46 pmol oocyte-1 h-1
pH 4.5 vs pH 6.0, Fig 1d left
  Y276A R-value: 0.34 and 0.66 and 0.36
pH 6.0, single replicates, Fig 1d left
  Y276A transport activity pH 6.0: 3.78 pmol oocyte-1 h-1 and 2.68 pmol oocyte-1 h-1 and 4.08 pmol oocyte-1 h-1
